Reference: ChEMBL document CHEMBL1201862, “PubChem BioAssay data set” (2004)
Activity calls are given as the source filed them.

Columns and labels:
[1] = biological target: 5-hydroxytryptamine receptor 2A (Mus musculus, UniProt P35363); format: functional, cell-based;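 note: CHO-K1 cells with tagged receptor and beta-arrestin; agonist potency measured as compound-induced activation of the receptor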
Mu-type opioid receptor = Mu-type opioid receptor (Homo sapiens, UniProt P35372); format: functional, cell-based;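 note: U2OS cells with beta-arrestin recruitment to OPRM1 by beta-gal complementation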
[2] = P. falciparum ATP4 D1247Y mutant growth inhibitors, dose response, NITD609-resistant line, SYBR Green, dry powder (AID 1159571); format: functional, cell-based;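 note: parasites synchronized at ring stage by sorbitol before testing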
[3] = HepG2 cell cytotoxicity, dose response, cytotoxicity control, cherry-picked samples (AID 1159577); format: functional, cell-based
[4] = P. falciparum 3D7-ScDHODH growth inhibitors, dose response, SYBR Green, dry powder samples (AID 1159570); format: functional, cell-based;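 note: parasite growth measured after 72 hours of compound exposure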
[5] = P. falciparum Dd2 growth inhibitors, dose response, SYBR Green, cherry-picked samples (AID 1159567); format: functional, cell-based
[6] = P. falciparum Dd2 growth inhibitors, dose response, SYBR Green, dry powder samples (AID 1159566); format: functional, cell-based;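 note: potency for growth inhibition with lower SYBR green DNA signal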
[7] = HepG2 cell cytotoxicity, dose response, cytotoxicity control, plate reader, dry powder samples (AID 1159569); format: functional, cell-based;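 note: inhibitor potency with signal falling toward the positive control level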
[8] = intracellular Trypanosoma cruzi inhibitors in host cells – cell-based, plate reader, cherry-pick samples, set 3, dose response (AID 651818); format: functional;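 note: compounds incubated with infected cells for about four days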
Paired box protein Pax-8 = Paired box protein Pax-8 (Homo sapiens, UniProt Q06710); assay: inhibitors of PAX8-driven TPO luciferase reporter, dose response, RMG-I cells, cherry-pick (AID 687027); format: functional, cell-based;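 note: luciferase reporter driven by Pax8 target thyroperoxidase promoter measured by SteadyGlo luminescence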
[9] = biological target: DNA dC->dU-editing enzyme APOBEC-3A (Homo sapiens, UniProt P31941); assay: APOBEC3A DNA deaminase inhibitors, dose response, biochemical (AID 504722); format: functional
[10] = biological target: DNA dC->dU-editing enzyme APOBEC-3G (Homo sapiens, UniProt Q9HC16); assay: Dose Response confirmation of small molecule APOBEC3G DNA Deaminase Inhibitors via a fluorescence-based single-stranded DNA deaminase assay. [Related pubchem assays (depositor defined):AID493012, AID493028]; format: functional
[11] = biological target: Voltage-gated inwardly rectifying potassium channel KCNH2 (Homo sapiens, UniProt Q12809); settings: Potency;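 note: confirmatory quantitative high-throughput screen measuring inhibition of hERG channel activity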
HEK293 [12] = assay: NOD2 signaling inhibitors in MDP-stimulated cells, cell-based, uHTS, luminescence (AID 2001); format: functional; settings: Homo sapiens
HEK293 [13] = assay: NOD1 signaling inhibitors, primary screen, cell-based, luminescence, uHTS (AID 1578); format: functional; settings: Homo sapiens
HEK293 [14] = assay: cells; format: functional, cell-based; settings: Homo sapiens
HEK293 [15] = assay: cells; format: functional, cell-based; settings: Homo sapiens; remark: listed apart in the source
[16] = biological target: T1, Type-1 angiotensin II receptor (Homo sapiens, UniProt P30556); assay: AT1 receptor antagonists, dose response, selectivity assay for APJ receptor antagonist project, cell-based, uHTS hits (AID 463214); format: functional;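 note: antagonist potency against angiotensin II stimulated AT1 response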
T1 sequence (P30556 whole entry): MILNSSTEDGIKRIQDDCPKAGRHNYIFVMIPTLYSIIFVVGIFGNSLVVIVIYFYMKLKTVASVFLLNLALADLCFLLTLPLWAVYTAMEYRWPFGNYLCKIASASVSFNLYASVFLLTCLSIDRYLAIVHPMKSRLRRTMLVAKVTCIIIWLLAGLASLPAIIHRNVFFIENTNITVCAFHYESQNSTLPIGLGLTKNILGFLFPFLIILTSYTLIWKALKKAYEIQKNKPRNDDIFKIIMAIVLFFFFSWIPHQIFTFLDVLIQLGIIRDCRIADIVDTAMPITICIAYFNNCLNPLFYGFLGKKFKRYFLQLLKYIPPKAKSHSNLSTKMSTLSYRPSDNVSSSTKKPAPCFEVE

Beta-galactosidase = Beta-galactosidase (Escherichia coli, UniProt Q8VNN2); assay: PubChem AID 485352; format: functional
[17] = biological target: T2, Serine/threonine-protein phosphatase (Candida dubliniensis (strain CD36 / CBS 7987 / NCPF 3949 / NRRLY-17841) (Yeast), UniProt B9W6M3); assay: calcineurin pathway inhibitors in yeast reporter, dose response, S. cerevisiae, CDRE-lacZ, luminescence, secondary (AID 2388); format: functional, cell-based;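 note: yeast reporter cells carrying a calcineurin-responsive lacZ construct stimulated with calcium chloride; luminescent beta-galactosidase reporter signal in whole cells rather than isolated phosphatase activity; potency for inhibition where a drop in reporter signal means calcineurin blockade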
T2 sequence (B9W6M3 whole entry): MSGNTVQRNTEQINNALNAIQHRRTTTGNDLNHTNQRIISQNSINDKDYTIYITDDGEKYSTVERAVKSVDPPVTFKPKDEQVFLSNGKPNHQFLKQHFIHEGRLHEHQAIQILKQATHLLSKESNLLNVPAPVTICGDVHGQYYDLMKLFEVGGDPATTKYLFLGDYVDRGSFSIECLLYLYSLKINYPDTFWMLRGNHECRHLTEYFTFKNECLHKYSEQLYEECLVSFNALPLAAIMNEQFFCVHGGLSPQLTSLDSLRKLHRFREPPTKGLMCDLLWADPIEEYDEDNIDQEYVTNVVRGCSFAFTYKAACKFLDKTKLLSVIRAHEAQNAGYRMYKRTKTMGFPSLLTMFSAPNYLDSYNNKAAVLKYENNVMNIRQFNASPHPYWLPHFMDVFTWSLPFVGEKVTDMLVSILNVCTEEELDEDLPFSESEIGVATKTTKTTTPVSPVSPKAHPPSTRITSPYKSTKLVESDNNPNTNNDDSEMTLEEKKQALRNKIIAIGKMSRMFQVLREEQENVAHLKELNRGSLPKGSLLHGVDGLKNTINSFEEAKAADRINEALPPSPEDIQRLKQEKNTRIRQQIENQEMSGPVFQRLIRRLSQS

[18] = C. albicans growth with fluconazole, confirmation, fluorescence, retest (AID 2467); format: functional, cell-based
Large T antigen = Large T antigen (Simian virus 40, UniProt P03070); format: functional, Betapolyomavirus macacae;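 note: Confirmatory-stage PubChem screen for compounds that inhibit SV40 T antigen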
[19] = NIH-3T3 fibroblast cytotoxicity, dose response, cytotoxicity control, cell-based, fluorescence, Alamar Blue, secondary assay (AID 2327); format: functional;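 note: NIH-3T3 mouse fibroblasts cultured with fluconazole at 8 µg/mL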
[20] = biological target: ATP-dependent molecular chaperone HSP82 (Candida albicans (strain WO-1) (Yeast), UniProt C4YTQ8); assay: loss of DOC-induced GRE-beta-galactosidase reporter signal, dose response, Hsp90 inhibitor project, S. cerevisiae, luminescence (AID 2400); format: functional, cell-based;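 note: beta-galactosidase luminescence from glucocorticoid response element reporter as proxy for Hsp90 function; inhibitor potency where signal loss means Hsp90 inhibition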
[21] = cytotoxicity in MIN6 insulinoma cells, dose response, cytotoxicity control, cell-based, mouse insulinoma (AID 2122); format: functional;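 note: confirmatory high-throughput counterscreen run to flag cytotoxic compounds; mouse MIN-6 beta cells carrying an insulin promoter eGFP reporter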
[22] = insulin promoter down-regulators in MIN6 cells, imaging, high-content screening, mouse beta cells (AID 1628); format: functional

Sequence of Mu-type opioid receptor (P35372 whole entry): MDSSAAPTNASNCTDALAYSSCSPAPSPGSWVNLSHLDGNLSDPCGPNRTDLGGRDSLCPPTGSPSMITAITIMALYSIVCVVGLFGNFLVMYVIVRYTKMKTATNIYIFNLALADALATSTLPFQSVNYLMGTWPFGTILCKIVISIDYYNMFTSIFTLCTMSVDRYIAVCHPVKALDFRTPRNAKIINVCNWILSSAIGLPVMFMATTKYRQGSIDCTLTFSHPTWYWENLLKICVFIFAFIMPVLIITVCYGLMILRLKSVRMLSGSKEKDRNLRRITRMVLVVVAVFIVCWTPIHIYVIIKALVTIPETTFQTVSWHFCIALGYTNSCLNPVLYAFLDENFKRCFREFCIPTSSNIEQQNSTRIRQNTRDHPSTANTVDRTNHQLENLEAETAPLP
Sequence of DNA dC->dU-editing enzyme APOBEC-3A (P31941 whole entry): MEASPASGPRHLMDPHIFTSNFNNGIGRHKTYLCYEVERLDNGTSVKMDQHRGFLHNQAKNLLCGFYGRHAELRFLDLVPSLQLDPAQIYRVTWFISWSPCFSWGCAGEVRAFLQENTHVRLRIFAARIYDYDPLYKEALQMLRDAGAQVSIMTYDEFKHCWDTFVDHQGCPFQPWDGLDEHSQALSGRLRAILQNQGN
Sequence of DNA dC->dU-editing enzyme APOBEC-3G (Q9HC16 whole entry): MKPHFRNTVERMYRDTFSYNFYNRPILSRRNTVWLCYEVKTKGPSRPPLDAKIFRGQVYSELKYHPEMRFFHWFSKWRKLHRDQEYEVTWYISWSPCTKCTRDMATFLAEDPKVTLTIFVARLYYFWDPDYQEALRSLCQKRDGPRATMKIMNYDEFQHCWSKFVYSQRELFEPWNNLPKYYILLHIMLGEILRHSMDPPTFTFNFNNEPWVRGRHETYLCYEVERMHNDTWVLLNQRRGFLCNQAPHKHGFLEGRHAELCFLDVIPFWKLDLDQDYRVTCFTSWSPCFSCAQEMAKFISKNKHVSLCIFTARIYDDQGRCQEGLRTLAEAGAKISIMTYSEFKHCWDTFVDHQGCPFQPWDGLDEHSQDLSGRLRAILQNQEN
Sequence of Large T antigen (P03070 whole entry): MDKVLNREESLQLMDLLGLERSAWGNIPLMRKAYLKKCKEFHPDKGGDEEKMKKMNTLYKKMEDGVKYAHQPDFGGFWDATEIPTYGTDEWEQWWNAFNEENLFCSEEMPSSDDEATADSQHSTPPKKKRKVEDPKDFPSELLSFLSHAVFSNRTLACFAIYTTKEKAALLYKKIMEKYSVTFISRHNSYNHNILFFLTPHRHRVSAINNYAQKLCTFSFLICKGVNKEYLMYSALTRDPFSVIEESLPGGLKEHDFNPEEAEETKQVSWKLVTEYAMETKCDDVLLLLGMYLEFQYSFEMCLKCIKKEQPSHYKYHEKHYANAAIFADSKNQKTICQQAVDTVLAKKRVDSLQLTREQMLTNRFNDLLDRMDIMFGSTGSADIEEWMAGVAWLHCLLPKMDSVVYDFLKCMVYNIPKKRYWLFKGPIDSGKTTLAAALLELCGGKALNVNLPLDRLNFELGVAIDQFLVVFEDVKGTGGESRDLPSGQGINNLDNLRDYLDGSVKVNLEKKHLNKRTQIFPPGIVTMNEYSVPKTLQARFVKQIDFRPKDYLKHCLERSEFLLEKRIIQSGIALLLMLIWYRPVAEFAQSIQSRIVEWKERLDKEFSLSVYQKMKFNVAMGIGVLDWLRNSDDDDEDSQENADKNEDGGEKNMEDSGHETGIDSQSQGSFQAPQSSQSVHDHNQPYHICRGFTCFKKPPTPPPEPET
Sequence of 5-hydroxytryptamine receptor 2A (P35363 whole entry): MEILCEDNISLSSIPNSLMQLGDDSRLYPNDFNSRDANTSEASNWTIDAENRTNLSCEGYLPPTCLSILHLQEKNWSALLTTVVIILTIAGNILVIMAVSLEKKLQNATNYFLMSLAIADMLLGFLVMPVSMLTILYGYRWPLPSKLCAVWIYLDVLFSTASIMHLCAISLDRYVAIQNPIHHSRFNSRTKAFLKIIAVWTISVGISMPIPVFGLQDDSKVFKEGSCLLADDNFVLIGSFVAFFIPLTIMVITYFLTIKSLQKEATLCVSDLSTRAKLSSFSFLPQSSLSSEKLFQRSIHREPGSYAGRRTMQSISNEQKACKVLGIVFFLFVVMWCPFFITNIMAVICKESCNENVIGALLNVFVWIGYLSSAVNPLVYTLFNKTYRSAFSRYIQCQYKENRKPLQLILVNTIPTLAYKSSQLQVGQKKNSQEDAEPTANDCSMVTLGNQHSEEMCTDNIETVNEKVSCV
Sequence of Voltage-gated inwardly rectifying potassium channel KCNH2 (Q12809 whole entry): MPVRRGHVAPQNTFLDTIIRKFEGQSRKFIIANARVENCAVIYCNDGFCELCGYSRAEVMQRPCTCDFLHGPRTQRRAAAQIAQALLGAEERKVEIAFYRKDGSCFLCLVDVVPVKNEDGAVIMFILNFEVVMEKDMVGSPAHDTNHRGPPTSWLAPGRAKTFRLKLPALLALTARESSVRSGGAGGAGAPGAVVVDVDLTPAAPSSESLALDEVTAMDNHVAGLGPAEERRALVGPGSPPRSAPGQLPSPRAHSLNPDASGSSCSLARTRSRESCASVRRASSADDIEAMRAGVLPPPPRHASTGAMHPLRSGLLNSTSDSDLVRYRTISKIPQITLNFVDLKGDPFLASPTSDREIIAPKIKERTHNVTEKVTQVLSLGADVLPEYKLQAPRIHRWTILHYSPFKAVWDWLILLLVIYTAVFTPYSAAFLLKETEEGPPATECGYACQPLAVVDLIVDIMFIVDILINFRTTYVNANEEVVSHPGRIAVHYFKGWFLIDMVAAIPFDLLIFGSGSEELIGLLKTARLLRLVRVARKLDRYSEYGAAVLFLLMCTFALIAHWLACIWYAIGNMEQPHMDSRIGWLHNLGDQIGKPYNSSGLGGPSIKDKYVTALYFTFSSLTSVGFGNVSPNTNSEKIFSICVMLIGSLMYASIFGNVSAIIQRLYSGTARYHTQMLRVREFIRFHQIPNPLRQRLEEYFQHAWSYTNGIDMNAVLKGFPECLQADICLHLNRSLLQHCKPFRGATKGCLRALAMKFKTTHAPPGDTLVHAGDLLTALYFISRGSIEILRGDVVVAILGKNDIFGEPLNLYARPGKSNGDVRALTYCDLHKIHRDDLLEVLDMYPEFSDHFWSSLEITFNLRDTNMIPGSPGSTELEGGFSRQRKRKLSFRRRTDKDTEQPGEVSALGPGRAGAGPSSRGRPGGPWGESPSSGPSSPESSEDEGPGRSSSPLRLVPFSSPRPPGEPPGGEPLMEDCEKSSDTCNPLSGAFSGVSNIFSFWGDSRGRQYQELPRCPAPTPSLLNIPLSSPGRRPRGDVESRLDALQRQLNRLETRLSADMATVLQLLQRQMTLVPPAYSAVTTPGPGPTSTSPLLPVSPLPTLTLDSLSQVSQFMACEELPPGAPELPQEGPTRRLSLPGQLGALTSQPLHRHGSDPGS
Sequence of Paired box protein Pax-8 (Q06710 whole entry): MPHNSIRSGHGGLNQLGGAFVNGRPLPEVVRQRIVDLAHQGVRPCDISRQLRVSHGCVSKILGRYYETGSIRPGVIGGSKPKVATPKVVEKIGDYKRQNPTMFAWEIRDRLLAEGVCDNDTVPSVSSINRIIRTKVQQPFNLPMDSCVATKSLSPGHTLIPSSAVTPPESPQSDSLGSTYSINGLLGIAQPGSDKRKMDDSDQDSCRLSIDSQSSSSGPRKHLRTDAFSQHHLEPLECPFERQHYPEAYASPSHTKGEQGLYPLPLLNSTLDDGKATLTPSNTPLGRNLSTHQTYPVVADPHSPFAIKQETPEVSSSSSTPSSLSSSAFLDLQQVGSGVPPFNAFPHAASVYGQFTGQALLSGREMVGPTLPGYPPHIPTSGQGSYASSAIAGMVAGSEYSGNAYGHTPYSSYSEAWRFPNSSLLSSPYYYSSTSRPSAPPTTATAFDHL
Sequence of ATP-dependent molecular chaperone HSP82 (C4YTQ8 whole entry): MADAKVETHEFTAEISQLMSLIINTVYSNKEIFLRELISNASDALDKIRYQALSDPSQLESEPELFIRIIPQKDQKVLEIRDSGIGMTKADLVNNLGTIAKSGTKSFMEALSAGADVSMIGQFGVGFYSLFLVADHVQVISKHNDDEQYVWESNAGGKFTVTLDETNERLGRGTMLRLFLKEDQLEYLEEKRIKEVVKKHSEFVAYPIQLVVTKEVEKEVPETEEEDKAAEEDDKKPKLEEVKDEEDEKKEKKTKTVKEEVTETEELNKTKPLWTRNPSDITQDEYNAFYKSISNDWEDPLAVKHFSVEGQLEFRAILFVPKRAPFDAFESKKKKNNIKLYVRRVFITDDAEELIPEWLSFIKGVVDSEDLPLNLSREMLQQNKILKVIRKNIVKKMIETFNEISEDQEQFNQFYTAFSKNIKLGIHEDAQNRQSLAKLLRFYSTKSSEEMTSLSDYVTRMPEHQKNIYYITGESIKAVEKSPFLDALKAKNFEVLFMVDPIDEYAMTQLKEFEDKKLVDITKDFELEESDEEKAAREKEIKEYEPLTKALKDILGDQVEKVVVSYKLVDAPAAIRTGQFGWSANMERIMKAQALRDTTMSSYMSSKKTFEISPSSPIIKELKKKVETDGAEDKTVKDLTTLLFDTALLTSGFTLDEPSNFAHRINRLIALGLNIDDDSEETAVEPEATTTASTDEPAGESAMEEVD

Q: For CCCN1CCC[C@H](c2cccc(O)c2)C1, which EC50 [1] is on record?
A: 0.711 µM (active)

Q: What about the EC50 (Mu-type opioid receptor) of the same compound?
A: 92.4 µM (inactive)

Q: What does the source list for COc1ccccc1NC(=O)N1CCCCN2[C@@H](CO)[C@H](c3ccc(C#CC4CCCC4)cc3)[C@@H]2C1?
A: AC50 [2]: 0.458 µM (active); AC50 [3]: 17.4 µM (active); AC50 [4]: 0.425 µM (active); AC50 [5]: 1.98 µM (active); AC50 [6]: 0.386 µM (active); AC50 [7]: 10.6 µM (active)

Q: Which results are given for Cc1ccc(S(=O)(=O)Nc2cccc3c2O[C@@H](CN(C)Cc2ccc(Oc4ccccc4)cc2)[C@@H](C)CN([C@H](C)CO)C3=O)cc1?
A: AC50 [8]: 2.89 µM (active); AC50 (Paired box protein Pax-8): 12.2 µM (active)

Q: With Cc1cc(-c2nnc(S)n2CC(C)C)cs1 as the compound, how does the IC50 [9] read?
A: > 100 µM (inactive)

Q: And the IC50 [10]?
A: 5.87 µM (active)

Q: For CN1C(=O)CCC1c1cccnc1 (centres undefined), which AC50 [11] is on record?
A: 3.16 µM (inconclusive)

Q: What does the source list for Nc1ccc(S(=O)(=O)Nc2nccc(/C=C/c3cccc(Br)c3)n2)cc1?
A: IC50 (HEK293 [12]): 7.62 µM (active); EC50 (HEK293 [13]): 8.24 µM (active); IC50 (HEK293 [14]): 12.8 µM (active); IC50 (HEK293 [15]): > 20 µM (inactive)

Q: Which IC50 [16] does the source give for CC1=NC(Nc2nc(C)c3ccccc3n2)=NC(C)(C)C1 here?
A: 13 µM (active)

Q: And the EC50 (Beta-galactosidase)?
A: > 40 µM (inactive)

Q: Which EC50 [17] does the source give for CCc1cc(S)n2c(nc3ccccc32)c1C#N here?
A: > 180 µM (inactive)

Q: What about the EC50 [18] of the same compound?
A: 0.254 µM (active)

Q: What about the IC50 (Large T antigen) of the same compound?
A: 99.8 µM (active)

Q: What about the EC50 [19] of the same compound?
A: > 150 µM (inactive)

Q: What about the EC50 [20] of the same compound?
A: > 150 µM (inactive)

Q: For C[C@@H]1CCCCO[C@H](CN(C)S(=O)(=O)c2cccs2)[C@@H](C)CN([C@H](C)CO)C(=O)c2cc(NC(=O)Nc3ccc(C(F)(F)F)cc3)ccc2O1, which AC50 [8] is on record?
A: 4.91 µM (active)

Q: Which AC50 [3] does the source give for COc1cccc(-c2cccc(-c3nc(C(=O)Nc4ccc(-c5ccccc5)cc4)cc4c3[C@@H](CCO)N([S+]([O-])C(C)(C)C)C4)c2)c1 (some centres undefined) here?
A: 15.2 µM (active)

Q: What about the AC50 [5] of the same compound?
A: 2.71 µM (active)

Q: With N#Cc1ccccc1NC(=O)C1SC(Nc2ccccc2)=C(C(=O)Nc2ccc(Cl)cc2)C1=N (centres undefined) as the compound, how does the IC50 [21] read?
A: 6.4 µM (active)

Q: And the IC50 [22]?
A: 8.77 µM (active)
